Data: patent publication US9694089B2, “Integrin targeting agents and in-vivo and in-vitro imaging methods using the same” (Visen Medical, Inc., priority 2008, dated 2017)

How the values were obtained:
αIIbβ3 = biological target: T1, αIIbβ3 (Homo sapiens, UniProt P05106+P08514); experiment: Inhibition of cell attachment to vitronectin, HEK293 cells transfected with αIIbβ3; format: cell-based; conditions: for IC50: HEK293 cells stably transfected with αIIbβ3
T1 construct: expressed in transfected cells; host or cells: HEK293
Experimental: (§1) In this experiment, human embryonic kidney (HEK293) cells stably transfected with ανβ3 (HEK293-ανβ3 cells) were released with trypsin-EDTA and washed four times with serum-free MEM. […] Non-attached cells were gently washed away. Similar experiments were carried out with HEK293 cells stably transfected with ανβ5, α11bβ3, or α5β1. The attached cells were quantified by colorimetric detection of hexosaminidase enzymatic activity in a Vmax plate reader (Molecular Devices, Menlo Park, Calif.). The number of attached cells was quantified using a standard curve for each cell line assayed and expressed as a mean value of triplicate samples.

4T-1 tumors = experiment: In vivo imaging of 4T-1 tumors; set-up: species or system NU/NU mice; conditions: 4 nmoles i.v., 24 hours post-injection
Experimental: In this experiment, NU/NU mice 6-8 weeks old (Charles River Laboratory, Wilmington, Mass.) were injected subcutaneously (s.c.) with 2×10^6 4T-1 cells bilaterally in each mammary fat pad. When tumors reached an approximate size of 3×3 mm (around 7 days after cell injection), mice were injected intravenously (i.v.) with 4 nmoles of each integrin agent (5 mice/probe+2 mice/no probe as control) in 100 μL volume via tail vein. Imaging was conducted 24 hours post-injection using a Fluorescence Molecular Tomography system (VisEn Medical, Bedford, Mass.).

[1] = tested on: human rhabdomyosarcoma A673 tumor cells; experiment: Cell binding assay by fluorescence microscopy, A673 tumor cells; format: cell-based
Experimental: (§2) Cell binding assays were performed using HUVEC (Human umbilical vein endothelial cells) and human rhabdomyosarcoma A673 tumor cells. HUVEC or A673 (50,000 cells) (ATCC, Manassas, Va.) were seeded unto 8-well Lab-Tek chamberslides (Nalge-Nunc International, Naperville, Ill.) and left to adhere overnight at 37° C. in a humidified atmosphere containing 5% CO2. The following day, the medium was changed to fresh complete medium containing compound E-6 or free dye (20 nM), incubated for 30 minutes at 37° C., washed 2×with PBS and fixed with paraformaldehyde for 30 minutes at 4° C. Competition studies were performed by pre-incubating the cells for 5 minutes with parent compound (200 nM) before addition of E-6. The cells on the microscopy slides were then allowed to air dry protected from light. The slides were mounted with ProLong® Gold antifade reagent with DAPI (Molecular Probes, Eugene, Oreg.) and cured overnight at room temperature protected from light. Merged images of the nuclear staining (DAPI) and fluorescent signals were collected using fluorescence microscopy (Zeiss, Thornwood, N.Y.)

A673 tumors [2] = experiment: Effect of Avastin treatment on integrin and cathepsin B signals in A673 tumor-bearing mice; format: in vivo
Experimental: A673 tumor-bearing mice were randomized once their tumors reached the desired volume and injected i.v. with either E-6 (2 nmoles) or free dye (2 nmoles). For competition studies, mice were injected with the parent compound (100 nmoles) followed 5 minutes later by compound E-6 ([…]). For therapy studies, mice were treated with either 2 mg/kg Avastin (bevacizumab, Genentech, CA) or vehicle (PBS) intraperitoneally (i.p.) 2× week, and injected 7 days after beginning the treatment with 2 nmoles each of compound E-6 and ProSense (ProSense750, VisEn Medical, Bedford, Mass.) in a final volume of 200 μl PBS. ProSense is a protease-activatable fluorescence agent comprising fluorochromes linked to a peptide scaffold. Proteolytic cleavage of the scaffold by cathepsin B activity (and to a lesser extent cathepsins K, L, and S) releases the fluorochromes and results in extensive fluorescence (via dequenching). Imaging was performed 24 hours after administration of the agents using the FMT2500. Differential localization of fluorescent signal with compound E-6 and ProSense can be seen in the same animal. The wavelength of the laser was selected to 680 nm or 750 nm, corresponding to the absorption spectra of the fluorescent agents administered to the animal, enabling simultaneous imaging and quantification of 2 spectrally distinct agents.

A673 tumors [3] = experiment: In vivo FMT imaging and quantification of signal in A673 tumor-bearing mice; set-up: species or system NU/NU mice
Experimental: Female NU/NU mice 6-8 weeks old (Charles River Laboratory, Wilmington, Mass.) were injected subcutaneously (s.c.) with A673 cells (5×10^6) in the first mammary fat pads. Once tumors reached the desired volume (measured with calipers using the formula volume mm^3=(length×width^2)/2), mice were injected i.v. with E-6 ([…]) in the absence or presence of excess, competing parent compound (100 nmoles). Control mice received free dye. For in vivo imaging, mice were anesthetized by gas anesthesia (isoflurane/oxygen mixture), placed in the VisEn's FMT2500 system imaging chamber one at a time, and imaged.
The fluorescent signal was quantified by drawing a three-dimensional ROI encompassing each tumor.

[4] = Biodistribution in A673 tumor-bearing mice; format: in vivo, NU/NU mice; conditions: 2 nmoles i.v., 24 hr
Experimental: For the biodistribution studies, female NU/NU mice 6-8 weeks old (Charles River Laboratory, Wilmington, Mass.) were injected subcutaneously (s.c.) with A673 cells (5×10^6) in the first mammary fat pads. Once tumors reached the desired volume (measured with calipers using the formula volume mm^3=(length×width^2)/2), mice were injected i.v. with compound E-6 (2 nmoles). Mice were sacrificed by carbon dioxide asphyxiation 24 hr later and certain tissues removed, rinsed with saline, blotted dry, and the imaged on VisEn's FMT2500 using the reflectance mode. Regions of interest (ROIs) were drawn around each organ using the FMT Software and the mean fluorescence (reported as counts/energy) determined for each organ and normalized to the mean fluorescence in tumors taken to be 100%.

ανβ5 = biological target: T2, ανβ5 (Homo sapiens, UniProt P06756+P18084); experiment: Inhibition of cell attachment to vitronectin, HEK293 cells transfected with ανβ5; format: cell-based; conditions: for IC50: HEK293 cells stably transfected with ανβ5, read-out: IC50 (nM), inhibition of cell attachment to vitronectin, αvβ5
T2 construct: expressed in transfected cells; host or cells: HEK293
Experimental: as §1

α5β1 = biological target: T3, α5β1 (Homo sapiens, UniProt P05556+P08648); experiment: Inhibition of cell attachment to vitronectin, HEK293 cells transfected with α5β1; format: cell-based; conditions: for IC50: HEK293 cells stably transfected with α5β1
T3 construct: expressed in transfected cells; host or cells: HEK293
Experimental: In this experiment, human embryonic kidney (HEK293) cells stably transfected with ανβ3 (HEK293-ανβ3 cells) were released with trypsin-EDTA and washed four times with serum-free MEM. Cells (25,000 cells/well) were added to microtiter wells coated with vitronectin and allowed to attach for 2 hours at 37° C. in a humidified incubator in the absence or presence of increasing concentrations of compound E-6 or unlabelled parent compound (as an inhibitor of E-6). Non-attached cells were gently washed away. Similar experiments were carried out with HEK293 cells stably transfected with ανβ5, α11bβ3, or α5β1. The attached cells were quantified by colorimetric detection of hexosaminidase enzymatic activity in a Vmax plate reader (Molecular Devices, Menlo Park, Calif.). The number of attached cells was quantified using a standard curve for each cell line assayed and expressed as a mean value of triplicate samples.

ανβ3 [5] = biological target: T4, ανβ3 (Homo sapiens, UniProt P05106+P06756); experiment: Confocal microscopy cell binding assay on HEK293-ανβ3 cells; format: cell-based
T4 construct: expressed in transfected cells; host or cells: HEK293
Experimental: Cell binding assays using HEK293 cells stably expressing human ανβ3 were performed.
HEK293 cells stably transfected with ανβ3 (HEK293-ανβ3 cells) were plated onto poly-L-lysine coated Lab-Tek II chambered coverglass (Nuns, Rochester, N.Y.) the day before the assay. Cells were first incubated with DAPI (10 μg/ml) for 3 hours, followed by CellMask (Invitrogen, Carlsbad, Calif.) staining for 5 minutes. Cells were then washed 2× with PBS and incubated with E-6 (200 nM in PBS containing 5% serum) at 4° C. or 37° C. for 30 minutes. For the competition study, cells were incubated with parent compound (200 μM) for 1 hour before E-6 incubation. Confocal microscopy was performed on a Leica SP5 confocal system (Leica, Wetzlar, Germany).

ανβ3 [6] = biological target: T4, ανβ3; experiment: Inhibition of cell attachment to vitronectin, HEK293-ανβ3 cells; format: cell-based; conditions: for IC50: HEK293-ανβ3 cells, vitronectin-coated wells, 2 hours at 37° C., read-out: IC50 (nM), inhibition of cell attachment to vitronectin, αvβ3
Experimental: as §1

[7] = tested on: HUVEC (Human umbilical vein endothelial cells); experiment: Cell binding assay by fluorescence microscopy, HUVEC; format: cell-based
Experimental: as §2

[8] = Plasma pharmacokinetics in mice; format: in vivo, BALB/c mice; conditions: 2 nmoles i.v. bolus, two compartmental model
Source text: Twenty-four female retired breeder BALB/c mice (Charles River Laboratories, Wilmington, Mass.) received a bolus intravenous (i.v.) injection of compound E-6 (2 nmoles in PBS). Terminal blood samples were collected by cardiac puncture from each mouse (following carbon dioxide asphyxiation). Three mice were sampled for each time point. Plasma was collected by centrifugation, diluted 1:2 in DMSO and fluorescence read using a fluorescence plate reader (Molecular Devices, Sunnyvale, Calif.). Data was normalized to a standard curve (FIG. 5A) prepared with known concentrations of E-6.

ανβ3 [9] = biological target: T4, ανβ3; experiment: Equilibrium binding and dissociation measurements by flow cytometry on HEK293-ανβ3 cells
Experimental: The amount of probe bound to integrins on HEK293-ανβ3 cells was determined by flow cytometry (FACSCalibur, BD Biosciences, CA). Data was analyzed using FlowJo software and Kd values were calculated using SigmaPLot 10 software. For koff determination, HEK293-ανβ3 cells (1×10^6) were incubated with 100 nM of E-6 at 4° C. for 30 minutes and labeled cells were than transferred into PBS containing 10 mM of parent compound. The amount of probe bound to the integrins on HEK293-ανβ3 cells was determined by flow cytometry (FACSCalibur, BD Biosciences, CA) before mixing with unlabeled compound, and 1, 1.5, 2.5, 3.5, 4.5, 5.5, and 24 hours after mixing. Data was analyzed using FlowJo software and koff and t1/2 values calculated using SigmaPLot 10 software.

[10] = agent 20 nM, 30 minutes at 37° C.
[11] = pre-incubation 5 minutes with parent compound 200 nM

Cc1ncc([C@@H](CCCCCCc2nc3c(cc2CNC(=O)CCCN(C)S(=O)(=O)c2cccc4c5c(ccc24)N(CCCS(=O)(=O)O)/C(=C/C=C/C=C/C2=[N+](CCS(=O)(=O)[O-])c4ccc6c(S(=O)(=O)O)cc(S(=O)(=O)O)cc6c4C2(C)C)C5(C)C)CCCN3)CC(=O)O)cn1 [Compound E-6]
IC50 (αIIbβ3): 39 nM | potency in binding to α11bβ3 compared to the parent compound (αIIbβ3; in words): retains higher potency | imaging of tumors in vivo (4T-1 tumors): imaged effectively | fluorescent signal of labeled A673 cells [1, 10]: Significant fluorescent signal | signal produced in tumors following Avastin treatment (A673 tumors [2]; A673 tumor-bearing mice, 2 nmoles agent, imaging 24 hours after): decreased by a greater amount than the signal produced by ProSense | fluorescence in tumors (FMT imaging) (A673 tumors [3]; A673 tumor-bearing mice, agent i.v., in words): readily detected | tissue distribution of fluorescence [4]: highest concentration found in tumors, followed by the liver, small intestine and skin | IC50 (ανβ5): 33 nM | loss of affinity to ανβ5 compared to the parent compound (ανβ5; ratio of Table 4 IC50 values): 25 fold | IC50 (α5β1): > 2000 nM | specific binding to α5β1 (α5β1; in words): no specific binding | internalization (receptor recycling, endocytosis) (ανβ3 [5]; 37° C. versus 4° C.): internalization at 37° C., but not at 4 °C | binding to HEK293-ανβ3 cells (confocal microscopy) (ανβ3 [5]; E-6 200 nM, 30 minutes, 4° C. or 37° C.): binds to the receptors on the surface of the cells | IC50 (ανβ3 [6]): 4.1 ± 0.3 nM | loss of affinity to ανβ3 compared to the parent compound (ανβ3 [6]; ratio of Table 4 IC50 values): 5 fold | fluorescent signal of labeled HUVEC cells [7, 10]: Significant fluorescent signal | plasma t(1)1/2 (free E-6 clearing from circulation) [8]: 6 min | plasma t(2)1/2 (clearance of bound E-6) [8]: 210 min | koff (ανβ3 [9]; 100 nM E-6, 4° C., HEK293-ανβ3 cells, chase with parent compound, read-out: dissociation rate constant koff): 0.000108 s⁻¹ | Kd (ανβ3 [9]; HEK293-ανβ3 cells, 4° C., 30 minutes, single binding site model, read-out: apparent equilibrium binding constant (Kd)): 4.2 ± 0.6 nM | binding isotherms in the absence or presence of Mn^2+ (ανβ3 [9]; in words): practically identical

CCN1/C(=C/C=C(/C=C/C2N(CC)c3ccc4c(S(=O)(=O)O)cc(S(=O)(=O)O)cc4c3C2(C)C)c2ccc(C(=O)NCCCCCC(=O)NCc3cc4c(nc3CCCCCC[C@@H](CC(=O)O)c3cnc(C)nc3)NCCC4)cn2)C(C)(C)c2c1ccc1c(S(=O)(=O)O)cc(S(=O)(=O)O)cc21 (some centres unmarked) [Compound E-7]
imaging of tumors in vivo (4T-1 tumors): imaged effectively

Nc1ncnc2c1ncn2[C@@H]1O[C@H](OCP(=O)(O)O)C=C1F [Parent Compound, reference compound]
IC50 (αIIbβ3): > 10000 nM | E-6 fluorescence intensity from A673 cells in the presence of a blocking dose [1, 11]: reduced | effect on total amount of E-6 signal in tumors (competition) (A673 tumors [3]; excess parent compound 100 nmoles, in words): effectively reduces | decrease of total E-6 fluorescence in tumors (A673 tumors [3]; parent compound 100 nmoles versus E-6 alone, p=0.011): 67% | IC50 (ανβ5): 1.3 ± 0.2 nM | IC50 (α5β1): > 10000 nM | effect on binding of E-6 to HEK293-ανβ3 cells (competition) (ανβ3 [5]; parent compound 200 μM for 1 hour before E-6 incubation): prevented | IC50 (ανβ3 [6]): 0.82 ± 0.2 nM | E-6 fluorescence intensity from HUVEC cells in the presence of a blocking dose [7, 11]: reduced

Avastin: Avastin (bevacizumab, Genentech, CA), anti-angiogenic treatment [reference compound]
effect of treatment on signal produced by compound E-6 in tumors (A673 tumors [2]; Avastin 2 mg/kg i.p. 2× week, agents injected after 7 days): decreased
